{"source": "PubChem BioAssay AID328", "about": "(DTP/NCI, 2004)", "test_system": "BDF1 mice, P388 leukemia ip, median survival T/C", "experiment": "NCI In Vivo Anticancer Drug Screen. Data for tumor model P388 Leukemia (intraperitoneal) in B6D2F1 (BDF1) mice", "conditions": "endpoint: median survival time, higher = longer survival", "summary_of_the_method": "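Compound-treated tumour-bearing mice were compared with vehicle-treated controls. Survival was recorded, and the value is the treated-group measurement divided by the control-group measurement (T/C).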", "key": {"[1]": {"conditions": "dose: 50.0 mg/kg/injection, schedule: Q01DX009 (ip), vehicle: saline with Tween-80"}, "[2]": {"conditions": "dose: 100.0 mg/kg/injection, schedule: Q01DX009 (ip), vehicle: saline with Tween-80"}, "[3]": {"conditions": "dose: 200.0 mg/kg/injection, schedule: Q01DX009 (ip), vehicle: saline with Tween-80"}}, "note": "Values joined by “and” are separate entries in the source; they are usually repeats but may differ in a detail not shown here. Identical values can stand only once. Inconclusive results and toxic doses are left out."}
{"compound": "O=C(Nc1cccc(C(F)(F)F)c1)C12CC3CC(CC(C3)C1)C2", "values": [{"measurement": "T/C", "setting": "dose: 12.5 mg/kg/injection, schedule: Q01DX009 (ip), vehicle: saline with Tween-80", "result": "92 % of control"}, {"measurement": "T/C", "setting": "[1]", "result": "87 % of control"}, {"measurement": "T/C", "setting": "[2]", "result": "90 % of control"}]}
{"compound": "CN=C(N)c1ccc(N=C(N)c2ccc(N=C(N)c3ccc(N=C(O)c4cccc(C(O)=Nc5ccc(C(N)=Nc6ccc(C(N)=Nc7ccc(C(N)=NC)cc7)cc6)cc5)c4)cc3)cc2)cc1", "values": [{"measurement": "T/C", "setting": "dose: 4.0 mg/kg/injection, schedule: Q01DX009 (ip), vehicle: saline with Tween-80", "result": "154 % of control"}, {"measurement": "T/C", "setting": "dose: 4.0 mg/kg/injection, schedule: Q04DX003 (ip), vehicle: saline with Tween-80", "result": "123 % of control"}, {"measurement": "T/C", "setting": "dose: 6.0 mg/kg/injection, schedule: Q04DX003 (ip), vehicle: saline with Tween-80", "result": "150 % of control"}, {"measurement": "T/C", "setting": "dose: 8.0 mg/kg/injection, schedule: Q01DX009 (ip), vehicle: saline with Tween-80", "result": "177 % of control"}, {"measurement": "T/C", "setting": "dose: 9.0 mg/kg/injection, schedule: Q04DX003 (ip), vehicle: saline with Tween-80", "result": "168 % of control"}, {"measurement": "T/C", "setting": "dose: 11.0 mg/kg/injection, schedule: Q01DX009 (ip), vehicle: saline with Tween-80", "result": "200 % of control"}, {"measurement": "T/C", "setting": "dose: 12.0 mg/kg/injection, schedule: Q01DX009 (ip), vehicle: saline with Tween-80", "result": "166 % of control"}, {"measurement": "T/C", "setting": "dose: 14.0 mg/kg/injection, schedule: Q04DX003 (ip), vehicle: saline with Tween-80", "result": "168 % of control"}, {"measurement": "T/C", "setting": "dose: 16.0 mg/kg/injection, schedule: Q01DX009 (ip), vehicle: saline with Tween-80", "result": "181 % of control and 183 % of control"}, {"measurement": "T/C", "setting": "dose: 16.5 mg/kg/injection, schedule: Q01DX009 (ip), vehicle: saline with Tween-80", "result": "227 % of control"}, {"measurement": "T/C", "setting": "dose: 22.0 mg/kg/injection, schedule: Q04DX003 (ip), vehicle: saline with Tween-80", "result": "159 % of control and 177 % of control and 204 % of control"}, {"measurement": "T/C", "setting": "dose: 33.0 mg/kg/injection, schedule: Q04DX003 (ip), vehicle: saline with Tween-80", "result": "250 % of control and 177 % of control"}, {"measurement": "T/C", "setting": "dose: 37.5 mg/kg/injection, schedule: Q01DX009 (ip), vehicle: saline with Tween-80", "result": "233 % of control and 194 % of control"}, {"measurement": "T/C", "setting": "dose: 50.0 mg/kg/injection, schedule: Q04DX003 (ip), vehicle: saline with Tween-80", "result": "250 % of control and 190 % of control"}, {"measurement": "T/C", "setting": "dose: 75.0 mg/kg/injection, schedule: Q04DX003 (ip), vehicle: saline with Tween-80", "result": "231 % of control and 200 % of control"}]}
{"compound": "COc1cc(C(=O)c2cocc2C(=O)c2ccc3c(c2)OCO3)cc(OC)c1OC", "values": [{"measurement": "T/C", "setting": "dose: 25.0 mg/kg/injection, schedule: Q01DX010 (ip), vehicle: saline", "result": "108 % of control"}, {"measurement": "T/C", "setting": "dose: 50.0 mg/kg/injection, schedule: Q01DX010 (ip), vehicle: other", "result": "123 % of control"}, {"measurement": "T/C", "setting": "dose: 50.0 mg/kg/injection, schedule: Q01DX010 (ip), vehicle: saline", "result": "91 % of control"}, {"measurement": "T/C", "setting": "dose: 50.0 mg/kg/injection, schedule: Q01DX010 (ip), vehicle: water", "result": "100 % of control"}, {"measurement": "T/C", "setting": "dose: 100.0 mg/kg/injection, schedule: Q01DX010 (ip), vehicle: other", "result": "180 % of control"}, {"measurement": "T/C", "setting": "dose: 100.0 mg/kg/injection, schedule: Q01DX010 (ip), vehicle: saline", "result": "86 % of control and 100 % of control"}, {"measurement": "T/C", "setting": "dose: 100.0 mg/kg/injection, schedule: Q01DX010 (ip), vehicle: water", "result": "111 % of control"}, {"measurement": "T/C", "setting": "dose: 200.0 mg/kg/injection, schedule: Q01DX010 (ip), vehicle: other", "result": "165 % of control"}, {"measurement": "T/C", "setting": "dose: 200.0 mg/kg/injection, schedule: Q01DX010 (ip), vehicle: saline", "result": "90 % of control"}, {"measurement": "T/C", "setting": "dose: 200.0 mg/kg/injection, schedule: Q01DX010 (ip), vehicle: water", "result": "155 % of control"}, {"measurement": "T/C", "setting": "dose: 400.0 mg/kg/injection, schedule: Q01DX010 (ip), vehicle: other", "result": "173 % of control"}]}
{"compound": "NC(=O)N/N=C/c1cccs1", "values": [{"measurement": "T/C", "setting": "dose: 25.0 mg/kg/injection, schedule: Q01DX009 (ip), vehicle: saline with Tween-80", "result": "97 % of control"}, {"measurement": "T/C", "setting": "[1]", "result": "104 % of control"}]}
{"compound": "CC1(C)CC2(C)OC2C2(C1)N=NC(=O)O2", "note": "(stereo not given)", "values": [{"measurement": "T/C", "setting": "[1]", "result": "98 % of control"}, {"measurement": "T/C", "setting": "[2]", "result": "107 % of control"}, {"measurement": "T/C", "setting": "[3]", "result": "121 % of control"}]}
{"compound": "CCOc1ccn(CC(=O)c2ccc(Cl)s2)c(=O)n1", "values": [{"measurement": "T/C", "setting": "[1]", "result": "106 % of control"}, {"measurement": "T/C", "setting": "[2]", "result": "113 % of control"}, {"measurement": "T/C", "setting": "[3]", "result": "97 % of control"}, {"measurement": "T/C", "setting": "dose: 400.0 mg/kg/injection, schedule: Q01DX009 (ip), vehicle: saline with Tween-80", "result": "106 % of control"}]}
{"compound": "Cc1ccc(C(=O)N/N=C/C(=O)O)cc1", "values": [{"measurement": "T/C", "setting": "dose: 12.5 mg/kg/injection, schedule: Q04DX003 (ip), vehicle: Klucel (hydroxypropylcellulose) (HPC)", "result": "113 % of control"}, {"measurement": "T/C", "setting": "dose: 25.0 mg/kg/injection, schedule: Q04DX003 (ip), vehicle: Klucel (hydroxypropylcellulose) (HPC)", "result": "106 % of control"}, {"measurement": "T/C", "setting": "dose: 50.0 mg/kg/injection, schedule: Q04DX003 (ip), vehicle: Klucel (hydroxypropylcellulose) (HPC)", "result": "116 % of control"}, {"measurement": "T/C", "setting": "dose: 100.0 mg/kg/injection, schedule: Q04DX003 (ip), vehicle: Klucel (hydroxypropylcellulose) (HPC)", "result": "106 % of control"}, {"measurement": "T/C", "setting": "dose: 200.0 mg/kg/injection, schedule: Q04DX003 (ip), vehicle: Klucel (hydroxypropylcellulose) (HPC)", "result": "122 % of control"}]}
{"compound": "Cc1c(C)c2c(c(C)c1O)CCC(C)(CCCC(C)CCCC(C)CCCC(C)C)O2", "note": "(stereo not given)", "values": [{"measurement": "T/C", "setting": "dose: 30.0 IU/animal/injection, schedule: Q04DX003 (ip), vehicle: olive oil, sesame oil, peanut oil", "result": "100 % of control"}, {"measurement": "T/C", "setting": "dose: 85.0 IU/animal/injection, schedule: Q04DX003 (ip), vehicle: olive oil, sesame oil, peanut oil", "result": "100 % of control"}]}
